The target of the assay is 11β-hsd-1 enzyme (Homo sapiens, UniProt P28845). The assay can be described thus: 11β-hsd-1 enzyme assay, percentage of inhibition (3H-cortisone to cortisol, radio-HPLC). In kind it is biochemical. Particulars: for inhibition at 0.1 µM: read-out: % inh @ 0.1 uM.

The source of these data is patent US20050148631A1, “Amino heterocyclyl inhibitors of 11-beta-hydroxy steroid dehydrogenase type 1” (AGOURON PHARMACEUTICALS, INC., priority 2003, published 2005).

Each structure is given as a SMILES string. Read-outs that look alike come from different tables or passages of the source.

11β-hsd-1 enzyme, sequence (P28845 whole entry, species assumed): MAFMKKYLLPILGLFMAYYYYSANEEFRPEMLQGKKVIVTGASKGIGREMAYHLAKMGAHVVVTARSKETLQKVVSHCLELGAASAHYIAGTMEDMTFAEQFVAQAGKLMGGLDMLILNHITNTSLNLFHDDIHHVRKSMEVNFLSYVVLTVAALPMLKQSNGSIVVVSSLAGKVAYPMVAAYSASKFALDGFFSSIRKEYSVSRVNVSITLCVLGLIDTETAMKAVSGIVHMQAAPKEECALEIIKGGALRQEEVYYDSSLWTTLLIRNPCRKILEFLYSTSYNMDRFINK

As for `Cc1cccc(NS(=O)(=O)c2cnn(-c3ccccc3)c2C)n1` [Example 99], the inhibition at 0.1 µM (0.1 uM) worked out at 15%.

As for `Cc1cccc(NS(=O)(=O)N2CCN3CCC[C@H]3C2)n1` [Example 302], the inhibition at 0.1 µM (compound at 0.1 uM) came to 18.1%.

Regarding `Cc1c(Cl)cccc1S(=O)(=O)Nc1cccc(CC(=O)NC23CC4CC(CC(C4)C2)C3)n1` [Example 27, N-Adamantan-1-yl-2-[6-(3-chloro-2-methyl-benzenesulfonylamino)-pyridin-2-yl]-acetamide], the inhibition at 0.1 µM (0.1 uM) is 1.9%.

In the case of `O=S(=O)(Nc1ccc2nc[nH]c2c1)c1ccc(-c2ccc(F)cc2)cc1` [Example 60], the inhibition at 0.1 µM (0.1 uM) is 31.9%.

In the case of `O=S(=O)(Nc1ccc2ccccc2n1)c1ccc(-c2ccccn2)cc1` [Example 287, 4-Pyridin-2-yl-N-quinolin-2-yl-benzenesulfonamide], the inhibition at 0.1 µM (compound at 0.1 uM) was 67.1%.

Take `CCN(CC)C(=O)Cc1cc(C)cc(NS(=O)(=O)c2cccc(Cl)c2C)n1` [Example 15]: the inhibition at 0.1 µM (0.1 uM) was 23.6%.

For the compound `Cc1cccc(NS(=O)(=O)c2ccc(-c3ccc(C(C)(C)C)cc3)cc2C)n1` [Example 175], the inhibition at 0.1 µM (0.1 uM) was 59%.

As to `COc1ccccc1-c1ccc(S(=O)(=O)Nc2cccc(C)n2)cc1` [Example 120], for the setting “0.1 uM”, the inhibition at 0.1 µM was 71.7%.

With `Cc1c(Cl)cccc1S(=O)(=O)Nc1cccc(CC(=O)N2CCN(C)CC2)n1` [Example 11], the inhibition at 0.1 µM was found to be 8.05%.

For `C=Cc1ccc(-c2ccc(S(=O)(=O)Nc3cccc(C)n3)cc2)cc1` [Example 127], the inhibition at 0.1 µM (0.1 uM) is 100%.

Consider `Cc1c(Cl)cccc1S(=O)(=O)Nc1cccc(CC(=O)N2CCSCC2)n1` [Example 10], for which the inhibition at 0.1 µM (0.1 uM) was determined as 38.7%.

`O=S(=O)(Nc1cccc(CN2CCOCC2)n1)c1ccc(-c2ccccc2)cc1` [Example 64]: the inhibition at 0.1 µM (0.1 uM) is 8.9%.

Turning to `CCOc1ccc(-c2ccc(S(=O)(=O)Nc3cccc(C)n3)cc2C)cc1` [Example 229], for the setting “compound at 0.1 uM”, the inhibition at 0.1 µM worked out at 9%.

Regarding `CCSc1ccc(-c2ccc(S(=O)(=O)Nc3cccc(C)n3)cc2)cc1` [Example 141], the inhibition at 0.1 µM (0.1 uM) amounted to 83.8%.

Consider `Cc1cccc(NS(=O)(=O)c2ccc(-c3ccc(O)cc3)cc2)n1` [Example 252], for which the inhibition at 0.1 µM (compound at 0.1 uM) is 44%.

Regarding `Cc1cccc(NS(=O)(=O)c2ccc(-c3ccc4c(c3)OCO4)cc2)n1` [Example 138], the inhibition at 0.1 µM (0.1 uM) worked out at 91.2%.

In the case of `O=S(=O)(Nc1ccc2cc[nH]c2c1)c1ccc(-c2ccc(F)cc2)cc1` [Example 57], the inhibition at 0.1 µM (0.1 uM) was 4.5%.

For the compound `Cc1cccc(NS(=O)(=O)c2ccc(-c3ccccc3C(F)(F)F)cc2)n1` [Example 122], where the note is “0.1 uM”, the inhibition at 0.1 µM was found to be 85.7%.

Take `Cc1ccc(S(=O)(=O)Nc2cccc(C)n2)cc1` [Example 49]: under “0.1 uM”, the inhibition at 0.1 µM came out at 82.6%.

As to `Cc1cc(C)nc(NS(=O)(=O)c2ccc(C(F)(F)F)cc2)c1` [Example 77], the inhibition at 0.1 µM (0.1 uM) turned out to be 35.4%.

Regarding `Cc1cc(C)nc(NS(=O)(=O)c2cccc(Cl)c2C)c1` [Example 44], under “0.1 uM”, the inhibition at 0.1 µM was determined as 16%.

Regarding `Cc1c(Cl)cccc1S(=O)(=O)Nc1cccc(CC(=O)NCc2ccc(C(F)(F)F)cc2)n1` [Example 13], for the setting “0.1 uM”, the inhibition at 0.1 µM worked out at 9.1%.

As to `Cc1cccc(NS(=O)(=O)c2ccc(-c3ccc(F)c(Cl)c3)cc2)n1` [Example 123], the inhibition at 0.1 µM (0.1 uM) amounted to 89.9%.

Consider `Cc1cccc(N(CCO)S(=O)(=O)c2ccc(-c3ccc(C#N)cc3)cc2)n1` [Example 266, 4′-Cyano-biphenyl-4-sulfonic acid (2-hydroxy-ethyl)-(6-methyl-pyridin-2-yl)-amide], for which, for the setting “compound at 0.1 uM”, the inhibition at 0.1 µM was 9.6%.

As for `Cc1cccc(NS(=O)(=O)c2ccc(F)cc2F)n1` [Example 55], the inhibition at 0.1 µM (0.1 uM) turned out to be 7.4%.

For the compound `Cc1cccc(NS(=O)(=O)c2ccc(C#N)cc2Cl)n1` [Example 53], the inhibition at 0.1 µM (0.1 uM) is 10.1%.

As for `CCc1ccc(-c2ccc(S(=O)(=O)Nc3cccc(C)n3)cc2C)cc1` [Example 235], for the setting “compound at 0.1 uM”, the inhibition at 0.1 µM amounted to 87%.

Take `CSc1ccccc1-c1ccc(S(=O)(=O)Nc2cccc(C)n2)cc1` [Example 139]: where the note is “0.1 uM”, the inhibition at 0.1 µM worked out at 37.9%.

Regarding `Cc1cccc(-c2ccc(S(=O)(=O)Nc3cccc(C)n3)cc2C)c1` [Example 227], the inhibition at 0.1 µM (compound at 0.1 uM) amounted to 40%.

As for `Cc1cccc(NS(=O)(=O)c2ccc(-c3cccc(C#N)c3)cc2)n1` [Example 132], the inhibition at 0.1 µM (0.1 uM) came out at 61.7%.

`Cc1cccc(NS(=O)(=O)c2ccc(-c3ccc(F)cc3C)c(C)c2)n1` [Example 242]: where the note is “compound at 0.1 uM”, the inhibition at 0.1 µM amounted to 61%.

Consider `Cc1cccc(NS(=O)(=O)Cc2ccc(Cl)c(Cl)c2)n1` [Example 74], for which the inhibition at 0.1 µM (0.1 uM) stood at 28.9%.

Consider `Cc1cccc(NS(=O)(=O)c2ccc(N3CCCCC3)nc2)n1` [Example 269, N-(6-methylpyridin-2-yl)-6-piperidin-1-ylpyridine-3-sulfonamide], for which the inhibition at 0.1 µM (compound at 0.1 uM) was 2.4%.

In the case of `CCN(CC)C(=O)CCc1ccc(NS(=O)(=O)c2cccc(Cl)c2C)nc1` [Example 18], the inhibition at 0.1 µM (0.1 uM) came out at 34.6%.

`CCN(CC)C(=O)Cc1cccc(NS(=O)(=O)c2ccc(C(C)C)cc2)n1` [Example 25]: the inhibition at 0.1 µM (0.1 uM) stood at 42.8%.

As for `Cc1cccc(NS(=O)(=O)c2ccc(-c3ccc4c(c3)OCCO4)c(C)c2)n1` [Example 245], the inhibition at 0.1 µM (compound at 0.1 uM) came out at 62%.

In the case of `Cc1cc(CC(=O)N2CCCCC2)nc(NS(=O)(=O)c2cccc(Cl)c2C)c1` [Example 14], under “0.1 uM”, the inhibition at 0.1 µM turned out to be 25.9%.

Consider `Cc1cccc(NS(=O)(=O)Cc2cc(Cl)cc(Cl)c2)n1` [Example 75], for which the inhibition at 0.1 µM (0.1 uM) was found to be 19.2%.

In the case of `Cc1cccc(NS(=O)(=O)c2ccc(-c3ccc(F)c(C)c3)cc2)n1` [Example 150], the inhibition at 0.1 µM (0.1 uM) amounted to 79.3%.

For `Cc1cccc(NS(=O)(=O)c2ccc(-c3cccc(C(F)(F)F)c3)cc2)n1` [Example 130], for the setting “0.1 uM”, the inhibition at 0.1 µM amounted to 78.9%.

Turning to `COc1ccc(C)nc1NS(=O)(=O)c1ccc(C(F)(F)F)cc1` [Example 89], where the note is “0.1 uM”, the inhibition at 0.1 µM amounted to 3.7%.

As for `Cc1cccc(NS(=O)(=O)Cc2ccc(C(F)(F)F)cc2)n1` [Example 73], for the setting “0.1 uM”, the inhibition at 0.1 µM came out at 17.3%.

`Cc1cccc(NS(=O)(=O)c2ccc(-c3ccc(CC(C)C)cc3)c(C)c2)n1` [Example 248]: where the note is “compound at 0.1 uM”, the inhibition at 0.1 µM is 57%.

As for `Cc1cc(C)nc(NS(=O)(=O)c2ccc(C(F)(F)F)cc2)c1` [Example 45], the “% inh @ 0.1 uM” value (0.1 uM) turned out to be 35%.

Regarding `Cc1cccc(NS(=O)(=O)c2ccc(-c3ccc(F)cc3F)cc2)n1` [Example 142], the inhibition at 0.1 µM (0.1 uM) is 84.5%.

Take `COc1ccc(F)cc1-c1ccc(S(=O)(=O)Nc2cccc(C)n2)cc1` [Example 147]: the inhibition at 0.1 µM (0.1 uM) came to 29.5%.

In the case of `Cc1cccc(NS(=O)(=O)c2ccc(-c3c(C)cccc3C)c(C)c2)n1` [Example 241], the inhibition at 0.1 µM (compound at 0.1 uM) amounted to 64%.

With `COc1cccc(NS(=O)(=O)c2ccc(C(F)(F)F)cc2)n1` [Example 62], the inhibition at 0.1 µM (0.1 uM) was 1.3%.

For the compound `Cc1cccc(NS(=O)(=O)c2ccc(-c3ccc(S(C)(=O)=O)cc3)c(C)c2)n1` [Example 234], the inhibition at 0.1 µM (compound at 0.1 uM) came to 57%.

`Cc1c(Cl)cccc1S(=O)(=O)Nc1cccc(CC(=O)N(C)C)n1` [Example 31]: the inhibition at 0.1 µM (0.1 uM) was 11.3%.

For the compound `COc1ccc(-c2ccc(S(=O)(=O)Nc3cccc(C)n3)cc2)c(C)c1` [Example 255], under “compound at 0.1 uM”, the inhibition at 0.1 µM was 64.6%.

As for `Cc1cccc(NS(=O)(=O)c2ccc(-c3ccc(OC(F)(F)F)cc3)cc2)n1` [Example 144], where the note is “0.1 uM”, the inhibition at 0.1 µM stood at 86.8%.

For `COC(=O)CCc1ccc(NS(=O)(=O)c2cccc(Cl)c2C)nc1` [Example 3], where the note is “0.1 uM”, the inhibition at 0.1 µM was found to be 19.6%.

For the compound `Cc1cccc(NS(=O)(=O)c2ccc(-c3ccccn3)cc2)n1` [Example 259, N-(6-Methyl-pyridin-2-yl)-4-pyridin-2-yl-benzenesulfonamide trifuoroacetate], for the setting “compound at 0.1 uM”, the inhibition at 0.1 µM amounted to 30%.

On to `Cc1cccc(NS(=O)(=O)c2ccc(-c3ccccc3Cl)cc2)n1` [Example 125], for which the inhibition at 0.1 µM (0.1 uM) was 87.8%.

As for `CCOC(=O)Cc1cccc(NS(=O)(=O)c2ccc(C(F)(F)F)cc2)n1` [Example 5], the inhibition at 0.1 µM (0.1 uM) came out at 0.3%.

On to `CSc1ccc(-c2ccc(S(=O)(=O)Nc3cccc(C)n3)cc2)cc1` [Example 129], for which the inhibition at 0.1 µM (0.1 uM) is 86.3%.

For the compound `Cc1cccc(NS(=O)(=O)c2ccc(-c3ccc(OCCN)cc3)cc2)n1` [Example 263, 4′-(2-Amino-ethoxy)-biphenyl-4-sulfonic acid (6-methyl-pyridin-2-yl)-amide], the inhibition at 0.1 µM (compound at 0.1 uM) was found to be 11.8%.

Turning to `Cc1cccc(NS(=O)(=O)c2ccc(N3CCOCC3)nc2)n1` [Example 83], the inhibition at 0.1 µM (0.1 uM) was 11.1%.

Turning to `Cc1cccc(NS(=O)(=O)c2ccc(-c3ccccc3C)cc2)n1` [Example 126], the inhibition at 0.1 µM (0.1 uM) was determined as 77.6%.

As for `Cc1c(Cl)cccc1S(=O)(=O)Nc1cccc(NC(=O)C2CCCN2)n1` (stereo not shown) [Example 296, Pyrrolidine-2-carboxylic acid [6-(3-chloro-2-methyl-benzenesulfonylamino)-pyridin-2-yl]-amide], the inhibition at 0.1 µM (compound at 0.1 uM) was determined as 16%.

As for `Cc1cccc(NS(=O)(=O)c2ccc(/C=C/c3ccccc3)cc2)n1` [Example 151], for the setting “0.1 uM”, the inhibition at 0.1 µM turned out to be 59.8%.

Consider `Cc1cccc(NS(=O)(=O)c2c(Cl)nc3sccn23)n1` [Example 80], for which, for the setting “0.1 uM”, the inhibition at 0.1 µM amounted to 8%.

With `CC(=O)Nc1nc(C)c(S(=O)(=O)Nc2cc(C)cc(C)n2)s1` [Example 100], for the setting “0.1 uM”, the inhibition at 0.1 µM amounted to 19.2%.

Consider `Cc1cccc(NS(=O)(=O)c2ccc(-c3cccc(OC(F)(F)F)c3)cc2)n1` [Example 153], for which the inhibition at 0.1 µM (0.1 uM) amounted to 75.3%.

Take `Cc1c(Cl)cccc1S(=O)(=O)Nc1cccc(CC(=O)N2CCCCC2)n1` [Example 9]: the inhibition at 0.1 µM (0.1 uM) was determined as 54.8%.

In the case of `CC(=O)c1cccc(-c2ccc(S(=O)(=O)Nc3cccc(C)n3)cc2)c1` [Example 148], the inhibition at 0.1 µM (0.1 uM) was 57.2%.

As for `Cc1c(Cl)cccc1S(=O)(=O)Nc1cccc(CC(=O)N2CCCC(C)(C)C2)n1` [Example 28], the inhibition at 0.1 µM (0.1 uM) was found to be 45.6%.

With `Cc1cccc(NS(=O)(=O)c2ccc(-c3cn[nH]c3)cc2)n1` [Example 250], for the setting “compound at 0.1 uM”, the inhibition at 0.1 µM was 17%.

Consider `Cc1cccc(NS(=O)(=O)c2ccc(-c3cc(Cl)cc(Cl)c3)cc2)n1` [Example 131], for which the inhibition at 0.1 µM (0.1 uM) was found to be 100%.
